pIC50: −log10 of the molar value.
How the values were obtained:
[1] = tested on: MOLM-13 cells; assay: Cell proliferation assay (alamarBlue), MOLM-13; type: cell-based; conditions: Homo sapiens, 96 hours incubation, inhibition of cell proliferation
Method in brief: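 IC50 = concentration giving 50% growth inhibition relative to buffer-treated cells, after subtracting baseline fluorescence taken before dosing. Compound applied at 1E-5 to 1E-8 M for 96 h at 37 °C in RPMI1640 with 10% FCS; alamarBlue signal at 530/590 nm.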

[2] = biological target: T1, BRD4 (BD1) (Homo sapiens, UniProt O60885); assay: Binding assay BRD4/acetylated peptide H4 (TR-FRET protein-protein interaction assay)
T1 construct: with relatively long constructs also being possible, preferably amino acids 44-168; made in house; host or cells: E. coli
Method in brief: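 Displacement of biotin-Ac-H4 peptide from His6-tagged BRD4(BD1), final usually 10 nM, read as Eu-streptavidin to anti-His-XL665 TR-FRET (665/620 nm). Compounds tested at 11 doses up to 20 μM in duplicate, pH 7.5 HEPES, 22 °C then 4 °C incubation; IC50 by 4-parameter regression.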

[3] = tested on: LAPC-4 cells; assay: Cell proliferation assay (alamarBlue), LAPC-4; type: cell-based; conditions: Homo sapiens, LAPC4; inhibition of cell proliferation, LAPC-4 (prostate cancer), 1 nM methyltrienolone, 168 hours
Description: (§1) In accordance with the invention, the capability of the substances to inhibit cell proliferation was determined Cell viability was determined using the alamarBlue® reagent (Invitrogen) in a Victor X3 Multilabel Reader (Perkin Elmer). The excitation wavelength was 530 nm and the emission wavelenth […].
The LAPC-4 cells (ATCC, PTA-1441TM) were sown at a concentration of 4000 cells/well in 100 μl growth medium (RPMI1640, 2 mM L-glutamine, 10% cFCS) on 96-well microtitre plates. A day later, the LAPC-4 cells were treated with 1 nM methyltrienolone and various substance dilutions.
(§2) After an overnight incubation at 37° C., the fluorescence values (CI values) were determined. The plates were then treated with various substance dilutions (1E-5 M, 3E-6 M, 1E-6M, 3E-7 M, 1E-7 M, 3E-8 M, 1E-8 M) and incubated at 37° C. for 72 (MV4-11-, LOX-IMVI cells), 96 (MOLM-13-, B16F10-, MDA-MB-431-, Caov-3 cells), 120 (MOLP-8-, KMS-12-PE cells) or 168 (LAPC-4 cells) hours. The fluorescence values (CO values) were then determined. For the data analysis, the CI values were subtracted from the CO values and the results were compared between cells treated with different dilutions of the substance or with buffer solution only. These were used to calculate the IC 50 values (substance concentration required for 50% inhibition of cell proliferation).

[4] = tested on: MOLP-8 cells; assay: Cell proliferation assay (alamarBlue), MOLP-8; type: cell-based; conditions: Homo sapiens, 120 hours incubation, inhibition of cell proliferation
Description: as §1
The MOLP-8 cells (DSMZ, ACC 569) were sown at a concentration of 4000 cells/well in 100 μl growth medium (RPMI1640, 20% FCS) on 96-well microtitre plates.
as §2

[5] = tested on: B16F10 cells; assay: Cell proliferation assay (alamarBlue), B16F10; type: cell-based; conditions: Mus musculus, B16-F10, 96 hours incubation, inhibition of cell proliferation
Description: as §1
The B16F10 cells (ATCC, CRL-6475) were sown at a concentration of 300-500 cells/well in 100 μl growth medium (DMEM with phenol red, 10% FCS) on 96-well microtitre plates.
as §2

[6] = tested on: Caov-3 cells; assay: Cell proliferation assay (alamarBlue), Caov-3; type: cell-based; conditions: Homo sapiens; inhibition of cell proliferation, Caov-3 (ovarian carcinoma), 96 hours
Description: as §1
The MDA-MB-231 cells (DSMZ, ACC 732) were sown at a concentration of 4000 cells/well in 100 μl growth medium (DMEM/Ham's F12 medium, 10% FCS) on 96-well microtitre plates. The Caov-3 cells (ATCC, HTB-75) were sown at a concentration of 2000 cells/well in 100 μl growth medium (MEM Earle's medium, 10% FCS) on 96-well microtitre plates.
as §2

[7] = tested on: KMS-12-PE cells; assay: Cell proliferation assay (alamarBlue), KMS-12-PE; type: cell-based; conditions: Homo sapiens, 120 hours incubation, inhibition of cell proliferation
Description: as §1
The KMS-12-PE cells (DSMZ, ACC 606) were sown at a concentration of 4000 cells/well in 100 μl growth medium (RPMI1640, 20% FCS) on 96-well microtitre plates.
as §2

[8] = tested on: MV4-11 cells; assay: Cell proliferation assay (alamarBlue), MV4-11; type: cell-based; conditions: Homo sapiens, 72 hours incubation, inhibition of cell proliferation
Description: as §1
The MV4-11 cells (ATCC, CRL 9591) were sown at a concentration of 5000 cells/well in 100 μl growth medium (RPMI1640, 10% FCS) on 96-well microtitre plates.
as §2

[9] = tested on: LOX-IMVI cells; assay: Cell proliferation assay (alamarBlue), LOX-IMVI; type: cell-based; conditions: Homo sapiens, 72 hours incubation, inhibition of cell proliferation
Description: as §1
The LOX-IMVI cells (NCI-60) were sown at a concentration of 1000 cells/well in 100 μl growth medium (RPMI1640, 10% FCS) on 96-well microtitre plates.
as §2

pIC50 [1] | pIC50 [2] | pIC50 [5] | pIC50 [8] | SMILES | pIC50 [3] | pIC50 [4] | pIC50 [6] | pIC50 [7] | pIC50 [9]
6.20 | 7.52 | – | – | CNC(=O)N1N=C(c2ccc(-n3nc(C)cc3COC)cc2)c2cc(OC)ccc2C[C@@H]1C [Example 27, (4S)-8-methoxy-1-{4-[5-(methoxymethyl)-3-methyl-1H-pyrazol-1-yl]phenyl}-N,4-dimethyl-4,5-dihydro-3H-2,3-benzodiazepine-3-carboxamide] | 6.74 | – | – | – | –
6.68 | 7.40 | 7.00 | – | CNC(=O)C1CCN(c2ccc(C3=NN(C(=O)NC)[C@@H](C)Cc4cc(OC)c(OC)cc43)cc2)CC1 [Example 189.1, (4S)-7,8-dimethoxy-N,4-dimethyl-1-{4-[4-(methylcarbamoyl)piperidin-1-yl]phenyl}-4,5-dihydro-3H-2,3-benzodiazepine-3-carboxamide] | – | 7.10 | – | – | –
6.48 | 7.10 | 6.77 | – | CNC(=O)N1N=C(c2ccc(N3CC(OC)C3)cc2)c2cc(OC)c(OC)cc2CC1C (racemic) [Example 187, (±)-7,8-dimethoxy-1-[4-(3-methoxyazetidin-1-yl)phenyl]-N,4-dimethyl-4,5-dihydro-3H-2,3-benzodiazepine-3-carboxamide] | – | – | – | – | –
6.70 | 7.30 | 7.00 | – | CNC(=O)N1N=C(c2ccc(N3CCC(C)(O)CC3)cc2)c2cc(OC)c(OC)cc2CC1C (racemic) [Example 188, (±)-1-[4-(4-hydroxy-4-methylpiperidin-1-yl)phenyl]-7,8-dimethoxy-N,4-dimethyl-4,5-dihydro-3H-2,3-benzodiazepine-3-carboxamide] | – | – | – | – | –
6.85 | 7.40 | 7.00 | – | CNC(=O)N1N=C(c2ccc(N3CCN(C)CC3)cc2)c2cc(OC(F)(F)F)ccc2CC1C (racemic) [Example 250, (±)-N,4-dimethyl-1-[4-(4-methyl-1-piperazinyl)phenyl]-8-(trifluoromethoxy)-4,5-dihydro-3H-2,3-benzodiazepine-3-carboxamide] | – | – | – | – | –
6.52 | 7.22 | 6.89 | – | CNC(=O)N1N=C(c2ccc(N3CC(O)C3)cc2)c2cc(OC)c(OC)cc2CC1C (racemic) [Example 184, (±)-1-[4-(3-hydroxyazetidin-1-yl)phenyl]-7,8-dimethoxy-N,4-dimethyl-4,5-dihydro-3H-2,3-benzodiazepine-3-carboxamide] | – | – | – | – | –
6.57 | 7.05 | – | – | CNC(=O)N1N=C(c2ccc(-c3ccn[nH]3)cc2)c2cc(OC)ccc2C[C@@H]1C [Example 23, (4S)-8-methoxy-N,4-dimethyl-1-[4-(1H-pyrazol-5-yl)phenyl]-4,5-dihydro-3H-2,3-benzodiazepine-3-carboxamide] | 6.72 | – | – | – | –
6.82 | 7.40 | 7.10 | – | CNC(=O)N1N=C(c2ccc(N3CCN(S(C)(=O)=O)CC3)cc2)c2cc(OC)c(OC)cc2C[C@@H]1C [Example 135.1, (4S)-7,8-dimethoxy-N,4-dimethyl-1-{4-[4-(methylsulphonyl)piperazin-1-yl]phenyl}-4,5-dihydro-3H-2,3-benzodiazepine-3-carboxamide] | – | – | – | – | –
6.52 | 7.15 | 6.77 | – | CNC(=O)N1N=C(c2ccc(N3CC(F)(F)C3)cc2)c2cc(OC)c(OC)cc2CC1C (racemic) [Example 181, (±)-1-[4-(3,3-difluoroazetidin-1-yl)phenyl]-7,8-dimethoxy-N,4-dimethyl-4,5-dihydro-3H-2,3-benzodiazepine-3-carboxamide] | – | – | – | – | –
6.37 | 7.40 | – | – | CNC(=O)N1N=C(c2ccc(-n3nc(COC)cc3C)cc2)c2cc(OC)ccc2C[C@@H]1C [Example 26, (4S)-8-methoxy-1-{4-[3-(methoxymethyl)-5-methyl-1H-pyrazol-1-yl]phenyl}-N,4-dimethyl-4,5-dihydro-3H-2,3-benzodiazepine-3-carboxamide] | 6.89 | – | – | – | –
7.30 | 7.70 | 7.40 | – | CNC(=O)N1N=C(c2ccc(N3CCN(C)CC3)cc2)c2cc(OC(F)(F)F)ccc2C[C@@H]1C [Example 250.2, (4S)-N,4-dimethyl-1-[4-(4-methyl-1-piperazinyl)phenyl]-8-(trifluoromethoxy)-4,5-dihydro-3H-2,3-benzodiazepine-3-carboxamide] | – | – | – | – | –
6.48 | 6.89 | 6.62 | – | CNC(=O)N1N=C(c2ccc(N3CCN(C(C)C)CC3)cc2)c2cc(OC)c(OC)cc2CC1C (racemic) [Example 186, (±)-1-[4-(4-Isopropylpiperazin-1-yl)phenyl]-7,8-dimethoxy-N,4-dimethyl-4,5-dihydro-3H-2,3-benzodiazepine-3-carboxamide] | – | – | – | – | –
6.36 | 7.22 | 6.68 | – | CNC(=O)C1CCN(c2ccc(C3=NN(C(=O)NC)C(C)Cc4cc(OC)c(OC)cc43)cc2)CC1 (racemic) [Example 189, (±)-7,8-dimethoxy-N,4-dimethyl-1-{4-[4-(methylcarbamoyl)piperidin-1-yl]phenyl}-4,5-dihydro-3H-2,3-benzodiazepine-3-carboxamide] | – | – | – | – | –
6.96 | 7.15 | 7.22 | – | CNC(=O)N1N=C(c2ccc(N3CCNCC3)cc2)c2cc(OC)c(OC)cc2C[C@@H]1C [Example 131.1, (4S)-7,8-dimethoxy-N,4-dimethyl-1-[4-(piperazin-1-yl)phenyl]-4,5-dihydro-3H-2,3-benzodiazepine-3-carboxamide] | – | – | – | – | –
6.55 | 7.15 | 6.80 | – | CNC(=O)N1N=C(c2ccc(N3CC(C)(O)C3)cc2)c2cc(OC)c(OC)cc2CC1C (racemic) [Example 185, (±)-1-[4-(3-hydroxy-3-methylazetidin-1-yl)phenyl]-7,8-dimethoxy-N,4-dimethyl-4,5-dihydro-3H-2,3-benzodiazepine-3-carboxamide] | – | – | – | – | –
6.60 | 7.40 | – | 7.30 | CNC(=O)N1N=C(c2ccc(-c3cccc(NS(C)(=O)=O)c3)cc2)c2cc(OC)c(OC)cc2CC1C (racemic) [Example 71, (±)-7,8-dimethoxy-N,4-dimethyl-1-{3′-[(methylsulphonyl)amino]biphenyl-4-yl}-4,5-dihydro-3H-2,3-benzodiazepine-3-carboxamide] | – | 7.05 | 6.82 | 7.10 | 6.82
7.10 | 7.40 | – | 7.15 | CNC(=O)N1N=C(c2ccc(-n3nc(-c4ccccc4)cc3C3CC3)cc2)c2cc(OC)c(OC)cc2CC1C (racemic) [Example 148, (±)-1-[4-(5-cyclopropyl-3-phenyl-1H-pyrazol-1-yl)phenyl]-7,8-dimethoxy-N,4-dimethyl-4,5-dihydro-3H-2,3-benzodiazepine-3-carboxamide] | – | 7.05 | 6.52 | 7.10 | 6.60

Reference: US9890147B2 (BAYER PHARMA AKTIENGESELLSCHAFT, priority 2012, dated 2018)
